Assay results: paper PMC5572576 (The Lancet. Oncology, 2017)
Where two headings read alike, the source gives them in different places. Marks after values point to notes of the source that are not given here.

Test system: patients with R/R AML
[1] = 120 mg, possibly related to treatment

CCc1nc(C(N)=O)c(Nc2ccc(N3CCC(N4CCN(C)CC4)CC3)c(OC)c2)nc1NC1CCOCC1 [gilteritinib]
4 (1·6%) n (%): Dysgeusia, Grade 2 (human, in vivo) | Elevated blood phosphocreatine kinase, Grade 4 (human, in vivo) | Gastrointestinal hemorrhage, Grade 3 (human, in vivo) | Hyponatraemia, Grade 2 (human, in vivo) | Pneumonia, Grade 5 (human, in vivo) | Septic shock, Grade 5 (human, in vivo) | Subdural hematoma, Grade 3 (human, in vivo)
14%: Serious adverse event: sepsis (human, in vivo)
14 (6%) n (%): Asthenia, Grade 1 (human, in vivo) | Cough, Grade 2 (human, in vivo) | Decreased neutrophil count, Grade 4 (human, in vivo) | Elevated AST, Grade 3 (human, in vivo) | Hyperphosphatemia, Grade 3 (human, in vivo) | Hypocalcaemia, Grade 3 (human, in vivo) | Hypokalaemia, Grade 2 (human, in vivo) | Insomnia, Grade 1 (human, in vivo)
26 (10%) n (%): Pneumonia, Grade 3 (human, in vivo)
40 (16%) n (%): Constipation, Grade 1 (human, in vivo) | Cough, Grade 1 (human, in vivo)
28 (11%) n (%): Elevated blood alkaline phosphatase, Grade 1 (human, in vivo)
1 n: Deaths, primary cause Multi-organ failure (40 mg) | Deaths, primary cause Diabetic ketoacidosis (80 mg) | Deaths, primary cause Respiratory failure (80 mg) | Treatment-related Grade ≥3 elevated AST (80 mg/d) | Treatment-related Grade ≥3 elevated alanine aminotransferase (80 mg/d) | Deaths, primary cause Colitis/neutropenic colitis (120 mg) | Deaths, primary cause Hepatic infection (120 mg) | Deaths, primary cause Multi-organ failure (120 mg) | Deaths, primary cause Respiratory failure (120 mg) | Deaths, primary cause Sepsis/staphylococcal sepsis (120 mg) | Treatment-related Grade ≥3 diarrhea (120 mg/d) | Treatment-related Grade ≥3 elevated alanine aminotransferase (120 mg/d) | Deaths, primary cause Anemia (200 mg) | Deaths, primary cause Bronchopulmonary aspergillosis (200 mg) | Deaths, primary cause Cardiac arrest (200 mg) | Deaths, primary cause Cellulitis (200 mg) | Deaths, primary cause Cerebrovascular ischemia (200 mg) | Deaths, primary cause Colitis/neutropenic colitis (200 mg) | Deaths, primary cause Death NOS (200 mg) | Deaths, primary cause Febrile neutropenia (200 mg) | Deaths, primary cause Hypoxia (200 mg) | Deaths, primary cause Intracranial hemorrhage (200 mg) | Deaths, primary cause Loss of consciousness (200 mg) | Deaths, primary cause Lung infection (200 mg) | Deaths, primary cause Renal failure (200 mg) | Deaths, primary cause Sudden death (200 mg) | Deaths, primary cause Ventricular tachycardia (200 mg) | Deaths, primary cause Renal failure (300 mg) | Deaths, primary cause Respiratory failure (300 mg) | Treatment-related Grade ≥3 elevated AST (300 mg/d) | Deaths, primary cause Cardiac arrest (450 mg)
5(2%) n (%): Hypoxia, Grade 4 (human, in vivo)
41 (16%) n (%): Progressive AML, Grade 5 (human, in vivo)
1 ^b n: Deaths, primary cause Hemoptysis (80 mg, possibly related to treatment) | Deaths, primary cause Neutropenia [1] | Deaths, primary cause Ventricular fibrillation [1] | Deaths, primary cause Pulmonary embolism (200 mg, possibly related to treatment)
4%: Patients with maximum post-baseline QTcF interval >500 ms (human, in vivo)
2 n: Deaths, primary cause Bacteremia/staphylococcal bacteremia (80 mg) | Deaths, primary cause Death NOS (120 mg) | Deaths, primary cause Pneumonia (120 mg) | Deaths, primary cause Pneumonia (200 mg) | Deaths, primary cause Septic shock (200 mg) | Treatment-related Grade ≥3 diarrhea (200 mg/d)
3 (1·2%) n (%): Bacteremia, Grade 4 (human, in vivo) | Decreased platelet count, Grade 2 (human, in vivo) | Hyperphosphatemia, Grade 4 (human, in vivo) | Leukopenia, Grade 4 (human, in vivo) | Pneumonia, Grade 2 (human, in vivo)
23 (9%) n (%): Anemia, Grade 2 (human, in vivo) | Dysgeusia, Grade 1 (human, in vivo) | Elevated blood creatinine, Grade 1 (human, in vivo) | Sepsis, Grade 4 (human, in vivo)
10 (4%) n (%): Asthenia, Grade 2 (human, in vivo) | Fall, Grade 2 (human, in vivo) | Hyponatraemia, Grade 3 (human, in vivo) | Insomnia, Grade 2 (human, in vivo) | Stomatitis, Grade 2 (human, in vivo)
31%: Serious adverse event: febrile neutropenia (human, in vivo)
6%: AE that led to study discontinuation: progressive disease (human, in vivo) | Serious adverse event: bacteremia (human, in vivo) | Serious adverse event: respiratory failure (human, in vivo)
21 (8%) n (%): Edema peripheral, Grade 2 (human, in vivo) | Hypotension, Grade 2 (human, in vivo)
3 n: Deaths, primary cause AML (20 mg) | Treatment-related Grade ≥3 elevated AST (200 mg/d)
1%: AE associated with dose reductions: diarrhea (human, in vivo) | AE associated with dose reductions: fatigue (human, in vivo) | Serious AE considered related to treatment: pyrexia (human, in vivo) | Serious AE considered related to treatment: sepsis (human, in vivo)
2 ^c n: Deaths, primary cause Intracranial hemorrhage (20 mg, one death considered possibly related to treatment) | Deaths, primary cause Septic shock (80 mg, one death considered possibly related to treatment)
1 (0.4) n (%): Fall, Grade 4 (human, in vivo)
12 (5%) n (%): Urinary tract infection, Grade 3 (Table 2) | Decreased appetite, Grade 1 (human, in vivo) | Elevated blood creatinine, Grade 2 (human, in vivo) | Stomatitis, Grade 1 (human, in vivo)
10%: Drug-related TEAEs leading to discontinuation (human, in vivo) | Patients requiring dose reductions (human, in vivo) | Serious adverse event: acute renal failure (human, in vivo)
10 n: Deaths, primary cause AML (120 mg)
9 (36%) n (%): Febrile neutropenia, Grade 3 (human, in vivo)
32 (13%) n (%): Diarrhea, Grade 2 (human, in vivo)
5 n: Deaths, primary cause AML (40 mg) | Deaths, primary cause AML (80 mg) | Deaths, primary cause Multi-organ failure (200 mg) | Deaths, primary cause Respiratory failure (200 mg) | Deaths, primary cause AML (300 mg)
11%: Grade 3/4 adverse event: pneumonia (human, in vivo) | Grade 3/4 adverse event: sepsis (human, in vivo) | Serious adverse event: pneumonia (human, in vivo)
13 n: Deaths, primary cause AML (200 mg)
< 20%: Probability of experiencing a DLT (doses up to 200mg)
3 (1.2%) n (%): Edema peripheral, Grade 3 (human, in vivo)
7 (3%) n (%): Acute renal failure, Grade 1 (human, in vivo) | Cellulitis, Grade 3 (human, in vivo) | Decreased neutrophil count, Grade 3 (human, in vivo) | Decreased platelet count, Grade 3 (human, in vivo) | Elevated blood phosphocreatine kinase, Grade 1 (human, in vivo) | Elevated blood phosphocreatine kinase, Grade 2 (human, in vivo) | Elevated blood phosphocreatine kinase, Grade 3 (human, in vivo) | Fall, Grade 3 (human, in vivo) | Febrile neutropenia, Grade 4 (human, in vivo) | Hypokalaemia, Grade 3 (human, in vivo) | Hypotension, Grade 1 (human, in vivo) | Lung infection, Grade 3 (human, in vivo) | Multi-organ failure, Grade 5 (human, in vivo) | Respiratory failure, Grade 5 (human, in vivo) | Sepsis, Grade 5 (human, in vivo) | Vomiting, Grade 2 (human, in vivo)
2 (0.8) n (%): Progressive AML, Grade 3 (human, in vivo)
35 (14%) n (%): Vomiting, Grade 1 (human, in vivo)
43 (17%) n (%): Edema peripheral, Grade 1 (human, in vivo)
8 n: Deaths, primary cause Sepsis/staphylococcal sepsis (200 mg)
3%: AE that led to study discontinuation: sepsis (human, in vivo)
1 (0·4%) n (%): Acute renal failure, Grade 4 (human, in vivo) | Anemia, Grade 1 (human, in vivo) | Anemia, Grade 5 (human, in vivo) | Bacteremia, Grade 5 (human, in vivo) | Cellulitis, Grade 5 (human, in vivo) | Decreased platelet count, Grade 1 (human, in vivo) | Elevated AST, Grade 4 (human, in vivo) | Elevated blood bilirubin, Grade 4 (human, in vivo) | Febrile neutropenia, Grade 5 (human, in vivo) | Gastrointestinal hemorrhage, Grade 4 (human, in vivo) | Hyperglycemia, Grade 4 (human, in vivo) | Hyperuricemia, Grade 4 (human, in vivo) | Hypocalcaemia, Grade 4 (human, in vivo) | Hypoxia, Grade 1 (human, in vivo) | Hypoxia, Grade 5 (human, in vivo) | Lung infection, Grade 5 (human, in vivo) | Neutropenia, Grade 5 (human, in vivo) | Pneumonia, Grade 1 (human, in vivo) | Pneumonia, Grade 4 (human, in vivo) | Sepsis, Grade 2 (human, in vivo) | Thrombocytopenia, Grade 1 (human, in vivo)
13 (5%) n (%): Bacteremia, Grade 3 (human, in vivo) | Diarrhea, Grade 3 (human, in vivo) | Elevated ALT, Grade 3 (human, in vivo) | Hypocalcaemia, Grade 1 (human, in vivo) | Hypoxia, Grade 3 (human, in vivo) | Pyrexia, Grade 3 (human, in vivo) | Syncope, Grade 3 (human, in vivo)
16 (6%) n (%): Hypotension, Grade 3 (human, in vivo) | Pyrexia, Grade 2 (human, in vivo)
17%: Serious adverse event: progressive disease (human, in vivo)
2 (0·8%) n (%): Hypokalaemia, Grade 4 (human, in vivo) | Hypomagnesemia, Grade 2 (human, in vivo) | Hyponatraemia, Grade 4 (human, in vivo) | Hypotension, Grade 4 (human, in vivo) | Leukocytosis, Grade 4 (human, in vivo) | Leukopenia, Grade 3 (human, in vivo) | Mucosal inflammation, Grade 4 (human, in vivo) | Neutropenia, Grade 2 (human, in vivo) | Neutropenia, Grade 3 (human, in vivo) | Respiratory failure, Grade 3 (human, in vivo) | Septic shock, Grade 4 (human, in vivo) | Subdural hematoma, Grade 4 (human, in vivo) | Thrombocytopenia, Grade 3 (human, in vivo)
1 (0.4%) n (%): Dyspnea, Grade 4 (human, in vivo)
37 (15%) n (%): Fatigue, Grade 2 (human, in vivo)
36 (14%) n (%): Dizziness, Grade 1 (human, in vivo) | Epistaxis, Grade 1 (human, in vivo) | Pyrexia, Grade 1 (human, in vivo)
47 (19%) n (%): Diarrhea, Grade 1 (human, in vivo)
17 (7%) n (%): Constipation, Grade 2 (human, in vivo) | Fall, Grade 1 (human, in vivo)
18 (7%) n (%): Decreased appetite, Grade 2 (human, in vivo) | Dyspnea, Grade 2 (human, in vivo) | Elevated AST, Grade 2 (human, in vivo) | Hyponatraemia, Grade 1 (human, in vivo) | Neutropenia, Grade 4 (human, in vivo)
2%: Serious AE considered related to treatment: acute renal failure (human, in vivo) | Serious AE considered related to treatment: febrile neutropenia (human, in vivo)
Seven: Deaths considered possibly/probably related to treatment (in vivo)
55 (22%) n (%): Anemia, Grade 3 (human, in vivo)
39%: Grade 3/4 adverse event: febrile neutropenia (human, in vivo)
11 (4%) n (%): Dizziness, Grade 2 (human, in vivo) | Dyspnea, Grade 3 (human, in vivo) | Fungal pneumonia, Grade 3 (human, in vivo) | Hypertension, Grade 2 (human, in vivo)
31 (12%) n (%): Fatigue, Grade 1 (human, in vivo) | Thrombocytopenia, Grade 4 (human, in vivo)
4 n: Treatment-related Grade ≥3 elevated alanine aminotransferase (200 mg/d)
33 (13%) n (%): Elevated AST, Grade 1 (human, in vivo)
13%: Grade 3/4 adverse event: thromobocytopenia (human, in vivo)
19 (8%) n (%): Arthralgia, Grade 1 (human, in vivo) | Nausea, Grade 2 (human, in vivo)
5 (2%) n (%): Atrial fibrillation, Grade 3 (human, in vivo) | Back pain, Grade 3 (human, in vivo) | Clostridium difficile colitis, Grade 3 (human, in vivo) | Decreased neutrophil count, Grade 2 (human, in vivo) | Elevated blood alkaline phosphatase, Grade 2 (human, in vivo) | Hyperuricemia, Grade 3 (human, in vivo) | Hypoalbuminemia, Grade 1 (human, in vivo) | Hypoalbuminemia, Grade 3 (human, in vivo) | Mucosal inflammation, Grade 3 (human, in vivo) | Muscle weakness, Grade 3 (human, in vivo) | Nausea, Grade 3 (human, in vivo) | Pleural effusion, Grade 3 (human, in vivo) | Respiratory failure, Grade 4 (human, in vivo) | Sepsis, Grade 3 (human, in vivo) | Skin infection, Grade 3 (human, in vivo) | Thrombocytopenia, Grade 2 (human, in vivo) | Vomiting, Grade 3 (human, in vivo)
8%: Serious adverse event: pyrexia (human, in vivo)
9 (4%) n (%): Acute renal failure, Grade 2 (human, in vivo) | Decreased white blood cell count, Grade 4 (human, in vivo) | Elevated ALT, Grade 2 (human, in vivo) | Epistaxis, Grade 2 (human, in vivo) | Leukocytosis, Grade 3 (human, in vivo)
22 (9%) n (%): Headache, Grade 1 (human, in vivo) | Hypoalbuminemia, Grade 2 (human, in vivo) | Hypokalaemia, Grade 1 (human, in vivo)
25 (10%) n (%): Elevated ALT, Grade 1 (human, in vivo)
24%: Grade 3/4 adverse event: anemia (human, in vivo)
30 (12%) n (%): Decreased platelet count, Grade 4 (human, in vivo) | Nausea, Grade 1 (human, in vivo)
15 (6%) n (%): Fatigue, Grade 3 (human, in vivo) | Hypocalcaemia, Grade 2 (human, in vivo)
29 (12%) n (%): Dyspnea, Grade 1 (human, in vivo) | Hypomagnesemia, Grade 1 (human, in vivo)
6 (2%) n (%): Anemia, Grade 4 (human, in vivo) | Asthenia, Grade 3 (human, in vivo) | Decreased white blood cell count, Grade 3 (human, in vivo) | Elevated blood bilirubin, Grade 3 (human, in vivo) | Headache, Grade 2 (human, in vivo) | Hypertension, Grade 1 (human, in vivo) | Increased transaminase, Grade 3 (human, in vivo)
8 (3%) n (%): Acute renal failure, Grade 3 (human, in vivo) | Arthralgia, Grade 2 (human, in vivo) | Hyperglycemia, Grade 3 (human, in vivo) | Hypertension, Grade 3 (human, in vivo) | Hypoxia, Grade 2 (human, in vivo) | QT Prolongation, Grade 3 (human, in vivo)
< 1%: Treatment-related mortality from neutropenia (human, in vivo)
